These results are taken from patent publication US10167299B2, “1-(3-aminopropyl) substituted cyclic amine compounds, preparation method therefor, and pharmaceutical compositions and uses thereof” (SHANGHAI INSTITUTE OF MATERIA MEDICA, CHINESE ACADEMY OF …, priority 2013, dated 2019).

The test system of one series is CCR5 protein. The series can be described thus: Thermal stability of protein test (CPM-assay). The format is binding. To be noted: thermal stability of CCR5 protein with compound, CPM dye. The method in brief:
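Purified, concentrated CCR5 protein (3–5 μg) was mixed with CPM dye and held 20 min at room temperature. It was then heated from 4 to 90 °C at 1 °C/min while fluorescence (excitation 387 nm, emission 436 nm) from CPM binding to exposed free cysteines was recorded. Tm is the midpoint of the signal change.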

For series [1] the following is noted: marketed drug, literature value, species not stated; cited from earlier work.
Series [2] can be described thus: Cytotoxicity (CC50) in TZM-bl cells. The format is cell-based. The settings on record: human; TZM-bl cells (Table 3); read-out: CC50.
For a further series, the target named is CYP1A2 (Homo sapiens (Human), UniProt P05177). Put plainly: CYP450 inhibition activity assay (Vivid kit) CYP1A2. The format is in vitro ADME. The settings on record: CYP450 subtype (μM) 1A2 (IC50).
Another series has as its target CYP2D6 (Homo sapiens (Human), UniProt P10635). Put plainly: CYP450 inhibition activity assay (Vivid kit) CYP2D6. The format is in vitro ADME. The settings on record: CYP450 subtype (μM) 2D6 (IC50).
A further series deals with HIV-1SF162 virus strain. The series can be described thus: Inhibition activity on TZM-bl cells infected with HIV-1SF162. The settings on record: Human immunodeficiency virus 1, TZM-bl.
In the next series the target is CYP2C19 (Homo sapiens (Human), UniProt P33261). The series can be described thus: CYP450 inhibition activity assay (Vivid kit) CYP2C19. Type of series: in vitro ADME. The settings on record: CYP450 subtype (μM) 2C19 (IC50).
Another series addresses CYP2C9 (Homo sapiens (Human), UniProt P11712). The series can be described thus: CYP450 inhibition activity assay (Vivid kit) CYP2C9. To be noted: CYP450 subtype (μM) 2C9 (IC50). Type of series: in vitro ADME.

The structures appear in SMILES notation. In brackets after ≈: the same amount, converted by molar mass.

Sequence of CYP2C19 (P33261 whole entry): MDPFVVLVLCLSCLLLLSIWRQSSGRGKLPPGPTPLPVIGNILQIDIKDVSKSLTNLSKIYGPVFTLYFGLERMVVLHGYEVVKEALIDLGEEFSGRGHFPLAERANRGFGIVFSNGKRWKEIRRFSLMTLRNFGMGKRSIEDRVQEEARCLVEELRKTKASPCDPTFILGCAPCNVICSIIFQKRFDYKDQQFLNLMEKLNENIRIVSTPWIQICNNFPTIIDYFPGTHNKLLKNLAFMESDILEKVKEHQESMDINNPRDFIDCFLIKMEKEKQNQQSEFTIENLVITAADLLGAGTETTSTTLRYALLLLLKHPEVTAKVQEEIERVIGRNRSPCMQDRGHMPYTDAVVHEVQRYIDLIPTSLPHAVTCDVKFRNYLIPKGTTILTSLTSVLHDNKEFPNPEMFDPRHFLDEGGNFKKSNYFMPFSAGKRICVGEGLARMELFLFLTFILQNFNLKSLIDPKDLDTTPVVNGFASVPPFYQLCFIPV
Sequence of CYP1A2 (P05177 whole entry): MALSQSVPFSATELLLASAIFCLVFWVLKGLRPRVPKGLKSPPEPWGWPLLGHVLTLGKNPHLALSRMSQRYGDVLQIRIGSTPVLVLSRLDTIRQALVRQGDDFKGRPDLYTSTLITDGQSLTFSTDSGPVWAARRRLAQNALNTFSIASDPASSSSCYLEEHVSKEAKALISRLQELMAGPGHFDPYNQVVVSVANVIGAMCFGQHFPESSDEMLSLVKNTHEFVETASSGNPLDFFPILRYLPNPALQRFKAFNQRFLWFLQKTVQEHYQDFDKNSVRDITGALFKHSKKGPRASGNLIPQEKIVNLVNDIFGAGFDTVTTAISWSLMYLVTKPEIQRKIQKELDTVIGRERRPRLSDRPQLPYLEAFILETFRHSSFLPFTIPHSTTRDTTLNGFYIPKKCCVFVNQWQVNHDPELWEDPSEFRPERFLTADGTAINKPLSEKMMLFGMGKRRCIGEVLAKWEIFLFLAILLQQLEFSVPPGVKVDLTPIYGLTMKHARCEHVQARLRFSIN
Sequence of CYP2D6 (P10635 whole entry): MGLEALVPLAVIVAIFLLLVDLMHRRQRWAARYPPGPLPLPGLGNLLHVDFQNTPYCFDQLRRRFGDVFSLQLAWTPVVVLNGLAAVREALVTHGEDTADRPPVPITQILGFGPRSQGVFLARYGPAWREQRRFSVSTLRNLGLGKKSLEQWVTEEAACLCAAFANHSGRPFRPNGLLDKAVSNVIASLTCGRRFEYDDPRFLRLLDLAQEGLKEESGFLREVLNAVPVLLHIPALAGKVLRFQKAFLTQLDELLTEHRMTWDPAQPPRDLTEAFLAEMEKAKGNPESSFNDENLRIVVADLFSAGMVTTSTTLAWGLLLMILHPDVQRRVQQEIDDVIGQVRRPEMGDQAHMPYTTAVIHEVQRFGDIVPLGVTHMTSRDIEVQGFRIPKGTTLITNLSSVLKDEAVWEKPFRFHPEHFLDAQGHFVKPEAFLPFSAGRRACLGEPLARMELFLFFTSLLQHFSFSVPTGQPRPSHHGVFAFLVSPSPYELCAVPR
Sequence of CYP2C9 (P11712 whole entry): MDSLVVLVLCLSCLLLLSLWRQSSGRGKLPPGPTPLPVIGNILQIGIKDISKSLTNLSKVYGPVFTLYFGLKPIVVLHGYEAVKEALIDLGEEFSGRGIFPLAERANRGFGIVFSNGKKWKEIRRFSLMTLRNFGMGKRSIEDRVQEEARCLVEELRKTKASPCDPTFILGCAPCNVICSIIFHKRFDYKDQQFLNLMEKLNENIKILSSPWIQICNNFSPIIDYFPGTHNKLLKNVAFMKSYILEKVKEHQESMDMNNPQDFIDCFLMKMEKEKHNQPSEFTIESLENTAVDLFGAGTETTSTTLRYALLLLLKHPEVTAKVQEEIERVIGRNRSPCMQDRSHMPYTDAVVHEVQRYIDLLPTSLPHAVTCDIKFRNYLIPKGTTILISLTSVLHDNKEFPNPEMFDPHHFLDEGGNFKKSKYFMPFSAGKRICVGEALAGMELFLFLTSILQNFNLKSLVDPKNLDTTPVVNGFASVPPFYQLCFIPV
Method for CYP1A2: (§1) VividR CYP450 Screening Kits can be used to evaluate the effects on CYP450 subtypes (CYP1A2, CYP2D6, CYP2C9, CYP2C19, CYP3A4-T and CYP3A4-M) and the substrate VividR in the kit can be metabolizd to a product which can emit strong fluorescence in an aqueous solution by specific CYP450 enzymes.
(§2) The compounds to be tested and positive compound were added to corresponding wells and DMSO was added to control wells.
(§3) CYP450 enzyme was added to the compounds to be tested, positive compound and DMSO control wells. The enzyme dilution was used to replace enzyme and added to DMSO wells as test background. The mixture was vibrated and mixed for 1 minute, and then incubated at room temperature for 20 minutes.
(§4) NADP^+ regeneration system and the substrate were added to initiate the reaction and incubated at room temperature for 60 minutes.
Method for CYP2C19: as §1, §2, §3, §4
Method for CYP2C9: as §1, §2, §3, §4
Method for CYP2D6: as §1, §2, §3, §4

In the case of `Cc1nnc(C(C)C)n1[C@@H]1C[C@H]2CC[C@@H](C1)N2CC[C@H](NC(=O)C1CCC(F)(F)CC1)c1ccccc1` [Maraviroc, reference compound], the “Tm (° C.)” value in the series on CCR5 protein is 72.17 °C. For the same compound, the bioavailability as reported in series [1] was 5%. Also, in series [2], the CC50 is above 200000 ng/mL. The concentration for half-maximal inhibition (IC50) on CYP1A2 is above 25 µM; against CYP2D6, above 25 µM; at CYP2C19, above 25 µM; at CYP2C9, 14.4 µM. In the series with HIV-1SF162 virus strain, this compound yielded an EC50 of 8.14 ng/mL (≈ 0.0158 µM).

By CC50 is commonly meant the concentration at which the toxic effect on the cells reaches its halfway point. A word on the IC50: it is the midpoint of a concentration-inhibition curve. High values mean weaker potency, low ones greater potency. The EC50 is the midpoint of the concentration-response curve. The low end stands for a more potent agent, the high end for a less potent agent.
